Source: patent publication US10081655B2, “Cationic antibacterial composition” (priority 2011, dated 2018)
pEC50: −log10 of the molar value. In brackets after ≈: the same amount, converted by molar mass.

Columns and labels:
[1] = system: Vancomycin resistant E. faecium (VanA, ATCC 51559); assay: MIC, micro-dilution broth; format: cell-based
Description: (§1) All cationic antibacterial compounds and control (vancomycin) were assayed in a micro-dilution broth format. Stock solutions were made by serially diluting the compounds using autoclaved Millipore water or broth media. The antibacterial activity of the compounds was determined against Methicillin sensitive S. aureus (MSSA), Methicillin resistant S. aureus (MRSA), vancomycin sensitive Enterococcus faecium (VSE), vancomycin resistant Enterococcus faecium (VRE), and E. coli. Bacteria, to be tested, were grown for about 10 h in the suitable media, MSSA and MRSA were grown in Yeast-dextrose broth (about 1 g of beef extract, about 2 g of yeast extract, about 5 g of peptone and about 5 g of NaCl in about 1000 mL of sterile distilled water (pH-7)). For solid media, about 5% agar was used along with above mentioned composition. E. coli was cultured in Luria Bertani broth (about 10 g of tryptone, about 5 g of yeast extract, and about 10 g of NaCl in 1000 mL of sterile distilled water, pH −7). VSE and VRE were cultured in Brain Heart Infusion broth (Himedia). The bacterial samples were freeze dried and stored at about −80° C. About 5 μl of these stocks were added to about 3 ml of the nutrient broth and the culture was grown for about 6 h at about 37° C. prior to the experiments. This 6 h grown culture gives about 10^9 cfu/mL for MSSA and MRSA, while it was about 10^8 cfu/mL for E. coli, 10^9 cfu/mL for both VSE and VRE and this was determined by spread plating method. The 6 h grown culture was diluted to give effective cell concentration of about 10^5 cfu/mL which was then used for determining MIC.
(§2) Compounds were serially diluted, in sterile water (2 fold dilution is employed) in a way that the working concentration was about 10 μM for MSSA MRSA, and VSE while for VRE and E. coli it was about 100 μM. About 50 μL of these serial dilutions were added to the wells of 96 well plate followed by the addition of about 150 μL of bacterial solution. The plates were then incubated at about 37° C., 150 rpm in the incubator and O.D at 600 nm was recorded at an interval of about 10 h and about 24 h using TECAN (Infinite series, M200 pro) Plate Reader. Each concentration had triplicate values and the whole experiment was done at least twice and the MIC value was determined by taking the average of triplicate O. D. values for each concentration and plotting it against concentration. The data was then subjected to sigmoidal fitting. From the curve the MIC value was determined, as the point in the curve where the O.D. was similar to that of control having no bacteria.

[2] = system: Vancomycin sensitive E. faecium (ATCC 19634); assay: MIC, micro-dilution broth; format: cell-based
Description: as §1, §2

E. coli [3] = assay: MIC, micro-dilution broth; format: cell-based
Description: as §1, §2

[4] = system: Methicillin sensitive S. aureus (MTCC 737); assay: MIC, micro-dilution broth; format: cell-based
Description: as §1, §2

E. coli [5] = assay: MBC by plating; format: cell-based
Description: as §1, §2
(§3) MBC values were determined by plating about 50 μl of the solution and later counting the colonies after their development.

[6] = system: Methicillin resistant S. aureus (ATCC 33591); assay: microbe, parasite or virus in culture; format: cell-based
Description: For solid media, about 5% agar was used along with above mentioned composition. […] VSE and VRE were cultured in Brain Heart Infusion broth (Himedia). […] The 6 h grown culture was diluted to give effective cell concentration of about 10^5 cfu/mL which was then used for determining MIC.
About 50 μL of these serial dilutions were added to the wells of 96 well plate followed by the addition of about 150 μL of bacterial solution. […] Each concentration had triplicate values and the whole experiment was done at least twice and the MIC value was determined by taking the average of triplicate O. D. values for each concentration and plotting it against concentration. The data was then subjected to sigmoidal fitting.

[7] = system: Vancomycin restant S. aureus (Clinical isolate, MMC-20, VanA & VanB); assay: MIC, broth dilution method in Mueller-Hinton broth; format: cell-based; settings: VRSA
Description: For vancomycin resistant staphylococcus aureus (VRSA; clinical isolate MMC-20), the MIC of compounds was determined by broth dilution method using Mueller-Hinton broth (MHB), as recommended by the National Committee for Clinical Laboratory Standards. About 5×10^4 bacterial cells in MHB culture were treated with different concentrations of compounds, and shaken for 16 h at 37° C. The minimum concentration at which there was no visible turbidity was taken as the MIC of that compound.

MSSA [8] = assay: MBC by plating; format: cell-based, S. aureus; settings: against MSSA
Description: as §1, §2, §3

[9] = system: Human Red Blood Cells (RBC); assay: Hemolytic assay; format: cell-based; settings: Erythrocyte, 1 h, about one hour at about 37° C., read-out: EC50 (hemolysis)
Description: Fresh human blood was collected under aseptic conditions in heparinised vacutainers. vancomycin derivatives are serially diluted, in sterile water (about 2 fold dilution is employed) in a way that the working concentration is about 100 μM. Heparinised blood was centrifuged down at about 3500 rpm for about 5 min in order to separate Red Blood Cells and blood plasma. RBC's are then washed couple of times with PBS pH-7.4 and suspended in PBS such that the final concentration of RBC was about 5 vol %. About 150 μL of this is mixed with about 50 μL of serially diluted compound in 96 well plate. The plate was then incubated at about 37° C. for about one hour. Later, the plate was centrifuged down at about 3500 rpm for about 5 min. The lysed RBC releases haemoglobin which was present in the supernatant. The supernatant thus was pipetted out into another fresh 96 well plate and the absorbance was measured at about 540 nm.
Percentage of hemolysis was determined as (A−A0)/(Atotal−A0)×100, where A is the absorbance of the test well, A0 the absorbance of solution without compound, and Atotal the absorbance of 100% hemolysis wells (with Triton X-100), all at 540 nm.

MRSA [10] = assay: Time-kill assay; format: cell-based, S. aureus; settings: 1×MIC, 6×MIC, 12×MIC, 0-3 h
Description: The bactericidal activity was assessed by the kinetics or the rate at which it affects the killing action of the compound. Briefly MRSA grown in Yeast-Dextrose broth. […] Bacterial suspension containing specified concentrations of the compound along with negative control (which contains only 0.9% Saline) was incubated at 37° C. with shaking. Aliquots (20 μl) were removed from the cultures at 0, 1, 2 and 3 h and were serially diluted 10-fold in 0.9% saline and plated onto sterile Yeast-Dextrose agar medium. The number of viable cells was determined by plating the 10-fold serial dilution of each sample onto Yeast-dextrose agar medium. Plates were then incubated for 24 h at 37° C., CFU was counted and the total bacterial log10 CFU/ml was determined.

Cytotoxicity assay (MTT) = format: cell-based; settings: human, HeLa cells (cervical cancer cells), about 24 h
Description: Cytotoxity of compounds 4 and 7 was determined against HeLa cell line following well known MTT assay. Cells were grown in DMEM at about 37° C. in a humidified-air atmosphere (about 5% CO2/95% air) in DMEM complete medium, supplemented with about 10% heat inactivated Fetal Bovine Serum and about 100 units/mL penicillin G, about 100 µg/mL streptomycin. Cells were seeded into 96 well plate and kept under the above mentioned conditions till they attained about 80% confluency. Compounds were serially diluted, in sterile water (2 fold dilution is employed) in a way that the working concentration was 100 μM. 50 μL of these dilutions were added to the cells and the volume was made up to 200 μL using DMEM medium. Cells were kept under observation for about 24 h. Later the medium was removed, cells were washed thoroughly with PBS and about 100 μL of MTT solution (about 5 mg/mL) was added to the wells. After about 3 h the MTT was removed, cells were lysed using DMSO and the plate was read at about 570 nm. One containing no compound (untreated cell) and other with about 10 vol % Triton-X 100 solution were also used. Percentage of cell survival was calculated using the formula: (Atreated cells−Atriton-X cells)/(Auntreated cell−Atriton-X cells)×100
A plot of % of survival against concentration of compound was plotted using Origin Pro software.

MSSA [11] = assay: Cytoplasmic membrane depolarization assay (diSC3(5)); format: cell-based, S. aureus; settings: concentration as high as 40 μM
Description: Midlog phase bacterial cells were harvested, washed with about 5 mM HEPES and about 5 mM glucose and resuspended in about 5 mM glucose, about 5 mM HEPES buffer and about 100 mM KCl solution in 1:1:1 ratio (about 10^8 cfu/ml). Measurements were made in a cuvette containing about 2 ml of bacterial suspension and about 2 μM diSC3(5). The fluorescence of the dye was monitored for about 10 min (MSSA) to about 20 min (E. coli) at R.T. spectrofluorometer at excitation wavelength of about 622 nm and emission wavelength of about 670 nm. Dye uptake, and resultant self quenching, was modulated by the membrane potential. After reaching the maximum uptake of the dye by bacteria, which was indicated by a minimum in dye fluorescence, (after about 10 min for S. aureus and about 20 min for E. coli) compounds (4 and 7) and control were added to the cells, and the decrease in potential was monitored by the increase in fluorescence for further about 10 min.

MRSA [12] = assay: MBC by plating; format: cell-based, S. aureus; settings: Staphylococcus aureus; against MRSA
Description: as §1, §2, §3

Q: Which MIC ([1]; VRE, E. faecium VanA ATCC 51559) does the source give for `CN[C@H](CC(C)C)C(=O)N[C@H]1C(=O)N[C@@H](CC(N)=O)C(=O)N[C@H]2C(=O)N[C@H]3C(=O)N[C@H](C(=O)N[C@H](C(=O)NCCCN(C)C)c4cc(O)cc(O)c4-c4cc3ccc4O)[C@H](O)c3ccc(c(Cl)c3)Oc3cc2cc(c3O[C@@H]2O[C@H](CO)[C@@H](O)[C@H](O)[C@H]2O[C@H]2C[C@](C)(N)[C@H](O)[C@H](C)O2)Oc2ccc(cc2Cl)[C@H]1O` [Compound 1] here?
A: The MIC was >100 µM.

Q: What about the MIC ([2]; VSE, E. faecium ATCC 19634) of the same compound?
A: Its MIC is 0.63 µM (≈ 0.966 µg/mL).

Q: What about the MIC (E. coli [3]; against E. coli) of the same compound?
A: Its MIC is 50 µM (≈ 76.7 µg/mL).

Q: What about the MIC ([4]; MSSA, S. aureus MTCC 737) of the same compound?
A: Its MIC is 0.62 µM (≈ 0.951 µg/mL).

Q: And the MBC (E. coli [5]; against E. coli)?
A: Its MBC is 50 µM (≈ 76.7 µg/mL).

Q: What about the MIC ([6]; MRSA, ATCC 33591) of the same compound?
A: The MIC was 0.61 µM (≈ 0.935 µg/mL).

Q: And the MIC ([7]; clinical isolate MMC-20)?
A: The MIC was 0.53 µM (≈ 0.813 µg/mL).

Q: And the MBC (MSSA [8])?
A: Its MBC is 1.25 µM (≈ 1.92 µg/mL).

Q: Which results are given for `CCCCCCCCCCCCCC[N+](C)(C)CCCNC(C)=O` [Compound 14, N′-Acetyl N-tetradecyl N,N dimethyl 1,3 propanediamine]?
A: MIC (E. coli [3]; against E. coli): >100 µM; MBC (E. coli [5]; against E. coli): >100 µM

Q: With `CN[C@H](CC(C)C)C(=O)N[C@H]1C(=O)N[C@@H](CC(N)=O)C(=O)N[C@H]2C(=O)N[C@H]3C(=O)N[C@H](C(=O)N[C@H](C(=O)O)c4cc(O)cc(O)c4-c4cc3ccc4O)[C@H](O)c3ccc(c(Cl)c3)Oc3cc2cc(c3O[C@@H]2O[C@H](CO)[C@@H](O)[C@H](O)[C@H]2O[C@H]2C[C@](C)(N)[C@H](O)[C@H](C)O2)Oc2ccc(cc2Cl)[C@H]1O` [Vancomycin] as the compound, how does the pEC50 [9] read?
A: Its pEC50 is < 4.00.

Q: And the MIC ([1]; Enterococcus faecium, ATCC 51559 / VRE)?
A: Its MIC is > 100 µM.

Q: What about the MIC ([2]; Enterococcus faecium, ATCC19634) of the same compound?
A: Its MIC is 0.6 µM (≈ 0.87 µg/mL).

Q: What about the MIC (E. coli [3]; Escherichia coli) of the same compound?
A: Its MIC is 80 to 100 µM (≈ 116 to 145 µg/mL).

Q: And the MIC ([4]; Staphylococcus aureus, MSSA / MTCC737)?
A: Its MIC is 0.63 µM (≈ 0.913 µg/mL).

Q: What about the MBC (E. coli [5]; Escherichia coli) of the same compound?
A: Its MBC is > 100 µM.

Q: What about the MBC (E. coli [5]; against E. coli, listed as Control) of the same compound?
A: Its MBC is >100 µM.

Q: What about the “killing kinetics (in words)” value (MRSA [10]) of the same compound?
A: The value was “relatively slow killing or bacteriostatic effect”.

Q: What about the MIC ([6]; Staphylococcus aureus, ATCC 33591 / MRSA) of the same compound?
A: The MIC was 0.63 µM (≈ 0.913 µg/mL).

Q: What about the EC50 at 24 h (Cytotoxicity assay (MTT)) of the same compound?
A: The EC50 at 24 h was > 100 µM.

Q: And the membrane depolarization (MSSA [11])?
A: Its membrane depolarization is “remained ineffective”.

Q: And the MIC ([7]; Staphylococcus aureus)?
A: Its MIC is > 86 µM.

Q: What about the MBC (MSSA [8]; Staphylococcus aureus, MSSA) of the same compound?
A: Its MBC is ~2.5 µM (≈ 3.62 µg/mL).

Q: And the MBC (MSSA [8]; listed as Control)?
A: The MBC was 2.5 µM (≈ 3.62 µg/mL).

Q: What about the MBC (MRSA [12]) of the same compound?
A: Its MBC is 2.5 µM (≈ 3.62 µg/mL).
